Tests used:
Assay type in all cases: in vivo, C57BL/6J mice
[1] = tested on: high-fat diet-fed C57BL/6J mouse; assay: Histopathology of epididymal white adipose tissue (adipocyte hypertrophy); details: mean area of epididymal adipocyte, HFD-fed mice
Procedure: (§1) Animal studies were performed and approved under the guidelines of the Institutional Animal Care and Use Committee in Taiwan (12 Mar. 2015). The 4-week old male C57BL/6J mice (total amount n=63) were obtained from the National Laboratory Animal Center (Taipei, Taiwan). After acclimatization for one week, all of the mice were randomly assigned into a control (CON) group and a high-fat diet (HFD) group. For the following 12 weeks, the CON group (n=9) received a control diet or a low-fat diet (Diet 12450B, Research Diets, Inc., New Brunswick, N.J., USA), while the HFD group (n=54) received a high-fat diet (Diet 12451, Research Diets, New Brunswick, N.J., USA). The low-fat diet was composed of protein 20%, carbohydrate 70% and fat 10%, whereas the high-fat diet was composed of protein 20%, carbohydrate 35%, and fat 45% (of total energy, % kcal). After HFD feeding for 8 weeks, the HFD group was randomly subdivided into six groups (n=9 per group) receiving different treatments and fed on HFD. […] The HF+AnK1, HF+AnK2, and HF+AnK3 groups are collectively termed AnK-treated HFD groups in the following examples. The CON mice were administered vehicle. All treatments were administered via oral gavage once daily. After administration for 4 weeks, all mice were fasted 12 hours, and blood was collected from the retro-orbital sinus under ether anesthesia. At the end of the experiment, the mice were sacrificed via carbon dioxide inhalation. Liver, adipose tissue, and skeletal muscle were collected and immediately stored at −80° C. for target gene analysis.
(§2) Parts of visceral adipose and liver specimens were fixed with formalin (200 g/kg) neutral buffered solution and embedded in paraffin. A series of 8 μm-thick sections was cut and stained with hematoxylin and eosin. For microscopic examination, a microscope (Olympus BX51, Olympus, Tokyo, Japan) was used and the images were photographed.
Adipocyte hypertrophy, the pathological enlargement of adipocytes, is often found in subjects with type 2 diabetes and hyperlipidemia. To verify the therapeutic effect of AnK on adipocyte hypertrophy, morphology of the epididymal white adipose tissue from mice of the HF group and the AnK-treated HFD groups was examined. Micrographs (magnification 200X) of the EWAT sections for each group were shown in FIG. 4 and analyzed to determine the mean area of an epididymal adipocyte.

[2] = tested on: high-fat diet-fed C57BL/6J mouse; assay: Histopathology of liver (hepatocellular ballooning); details: grade 0 absence, 1 few cells, 2 many cells (Table 4), HFD-fed mice
Procedure: as §1, §2
On the basis of previous study, the degree of hepatocellular ballooning is defined in TABLE 4: […]

[3] = tested on: phospho-AMPK (Thr^172)/total-AMPK; assay: Western blotting of phospho-AMPK/total-AMPK in skeletal muscle and liver; details: HFD-induced reduction, AnK 10, 20, 40, Feno 250, Metf 300 mg/kg/day, vs HF group
From the text: (§3) The 4-week old male C57BL/6J mice (total amount n=63) were obtained from the National Laboratory Animal Center (Taipei, Taiwan). After acclimatization for one week, all of the mice were randomly assigned into a control (CON) group and a high-fat diet (HFD) group. […] After HFD feeding for 8 weeks, the HFD group was randomly subdivided into six groups (n=9 per group) receiving different treatments and fed on HFD. […] The HF+AnK1, HF+AnK2, and HF+AnK3 groups are collectively termed AnK-treated HFD groups in the following examples. The CON mice were administered vehicle. All treatments were administered via oral gavage once daily. After administration for 4 weeks, all mice were fasted 12 hours, and blood was collected from the retro-orbital sinus under ether anesthesia. At the end of the experiment, the mice were sacrificed via carbon dioxide inhalation. Liver, adipose tissue, and skeletal muscle were collected and immediately stored at −80° C. for target gene analysis.
(§4) About 0.1 g of liver tissue, skeletal muscle, or adipose tissue was used for the homogenate samples. Samples were powdered under liquid nitrogen and homogenized for 20 seconds in 500 μL buffer containing 20 mM Tris-HCl (pH 7.4 at 4° C.), 2% SDS, 5 mM EDTA, 5 mM EGTA, 1 mM dithiothreitol (DTT), 100 mM NaF, 2 mM sodium vanadate, 0.5 mM phenylmethylsulfonyl fluoride, 10 μg/mL leupeptin, and 10 μL/mL pepstatin. The total membrane fraction was used for measurement. The protein concentration in supernatant was determined with a BCA protein assay kit (Thermo Scientific, Rockford, Ill., USA). […] The membrane was blocked with 5% slim milk in Tris-buffered saline (TBS)(Amersham BioSciences, Uppsala, Sweden) containing 0.05% Tween-20 (Bio Rad, CA, USA) and incubated overnight at 4° C. with antibodies at 1:200 dilution. Subsequently, the membrane was washed three times with TBS containing 0.05% Tween-20 and incubated with secondary antibody anti-rabbit (1:1000)(Jackson ImmunoResearch Laboratories, Inc., PA, USA) for 1 hour. Immunoreactive bands were detected with ECL reagent kit (GE Healthcare BioSciences, Buckinghamshire, UK). The intensity of Western blot signals was analyzed using AlphaEase FC software (Alpha Innotech Corporation, Randburg, South Africa). The structural protein GAPDH in the samples was used as the loading control.

membrane GLUT4 = assay: Western blotting of skeletal muscular membrane GLUT4 in HFD-fed mice; details: skeletal muscle, AnK 10, 20, 40, Feno 250, Metf 300 mg/kg/day, as compared with the HF group
From the text: as §3
as §4, with “Subsequently, the membrane was washed three times with TBS containing 0.05% Tween-20 and incubated with secondary antibody anti-rabbit (1:1000)(Jackson ImmunoResearch Laboratories, Inc., PA, USA) for 1 hour.” left out, “The structural protein GAPDH in the samples was used as the loading control.” left out

[4] = HF + AnK1: AnK 10 mg/kg/day oral gavage 4 weeks
[5] = HF + AnK2: AnK 20 mg/kg/day oral gavage 4 weeks
[6] = HF + AnK3: AnK 40 mg/kg/day oral gavage 4 weeks
[7] = HF + Metf: metformin 300 mg/kg/day oral gavage 4 weeks

Row | SMILES | Adipocyte size [1, 4] | Adipocyte size [1, 5] | Adipocyte size [1, 6] | Hepatocellular ballooning Mean score [2, 4] | Hepatocellular ballooning Mean score [2, 5] | Hepatocellular ballooning Mean score [2, 6] | expression levels of phospho-AMPK/total-AMPK ([3]; liver) | expression levels of phospho-AMPK/total-AMPK ([3]; skeletal muscle) | increase of membrane GLUT4 levels (membrane GLUT4) | Adipocyte size [1, 7] | Hepatocellular ballooning Mean score [2, 7]
1 | C=C(CC[C@@H](C)[C@H]1CC[C@H]2C3=C(C(=O)C[C@]12C)[C@@]1(C)CC[C@@H](O)[C@](C)(O)[C@@H]1C[C@@H]3O)C(C)C(=O)O (stereo partly drawn) [AnK, 3α,4β,7β-trihydroxy-4α-methylergosta-8,24(28)-dien-11-on-25S-26-oic acid] | 6548.6 ± 214.7 μm^2 | 6483.8 ± 319.8 μm^2 | 5670.8 ± 281.6 μm^2 | 0.7 ± 0.2 | 0.5 ± 0.2 | 0.4 ± 0.2 | significantly reversed | significantly reversed | 1.52-2.20 fold |  | 
2 | CN(C)C(=N)N=C(N)N [Metf, metformin, reference compound] |  |  |  |  |  |  | significantly reversed | significantly reversed | 1.86 fold | 5873.7 ± 345.1 μm^2 | 0.7 ± 0.2

Source: patent publication US10124012B2, “Method for treatment of hyperglycemia and hyperlipidemia” (priority 2016, dated 2018)
